Assays:
Format in all cases: in vivo
Conditions in all cases: Konzett data
[1] = test system: Hist; experiment: Konzett test, Hist (bronchodilator activity)
[2] = test system: Ach; experiment: Konzett test, Ach (bronchodilator activity)
[3] = test system: 5-HT; experiment: Konzett test, 5-HT (bronchodilator activity)

With `CCCCCC(C)(O)/C=C/C1C(O)CC(=O)C1C/C=C\CCCCO` (racemic) [dl-1,11,15-trihydroxymethyl-9-oxo-15-methyl-5-cis-13-trans prostadiene] the “Hist (ED50 g/kg)” value [1] was 0.00075 g/kg, the “Ach (ED50 g/kg)” value [2] was 0.0043 g/kg and the “5-HT (ED50 g/kg)” value [3] was 0.0083 g/kg.

Source: patent publication US4291175A, “1-Hydroxymethyl-11-deoxy-15-hydroxy-prosten-1-ol-derivatives” (American Cyanamid Company, priority 1980, dated 1981)
